target: T1, human RXFP1 (Homo sapiens, UniProt Q9HBX9); experiment: RXFP1 cAMP assay (hRXFP1 HEK293 cAMP assay, HTRF); assay type: cell-based; details: HEK293 cells stably expressing human RXFP1, 30 min at room temperature, read-out: cAMP hRXFP1 HEK293 Assay EC50
T1 construct: expressed in transfected cells
T1 sequence (Q9HBX9 1-757): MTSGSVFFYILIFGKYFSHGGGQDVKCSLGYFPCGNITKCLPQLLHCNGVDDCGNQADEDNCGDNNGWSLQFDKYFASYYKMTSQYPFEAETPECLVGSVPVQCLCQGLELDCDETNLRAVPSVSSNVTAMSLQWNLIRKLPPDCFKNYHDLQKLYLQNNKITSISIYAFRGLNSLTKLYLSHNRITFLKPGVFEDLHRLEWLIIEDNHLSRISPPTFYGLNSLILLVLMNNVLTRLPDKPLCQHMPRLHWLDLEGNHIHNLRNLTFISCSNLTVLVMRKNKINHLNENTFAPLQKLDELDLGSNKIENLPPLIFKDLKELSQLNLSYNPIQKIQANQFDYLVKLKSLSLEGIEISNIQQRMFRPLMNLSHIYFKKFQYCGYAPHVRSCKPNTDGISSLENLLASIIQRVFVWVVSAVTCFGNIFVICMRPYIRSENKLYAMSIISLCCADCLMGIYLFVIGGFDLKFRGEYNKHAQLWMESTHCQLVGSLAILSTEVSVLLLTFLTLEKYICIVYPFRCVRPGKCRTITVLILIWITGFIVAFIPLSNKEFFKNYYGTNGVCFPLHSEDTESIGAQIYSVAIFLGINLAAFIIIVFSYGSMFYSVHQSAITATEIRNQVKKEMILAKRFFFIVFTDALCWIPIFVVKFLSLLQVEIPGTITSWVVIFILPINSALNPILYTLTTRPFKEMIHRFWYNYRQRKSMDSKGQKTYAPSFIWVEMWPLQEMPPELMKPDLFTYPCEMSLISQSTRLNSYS
How it was run: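 hRXFP1-HEK293 stable line; HBSS + Ca/Mg, 20 mM HEPES, 0.05% BSA, 0.5 mM IBMX; cpd 0.010 nM–50 μM, 2% DMSO; 30 min RT; lysis, HTRF cAMP detection; 4-PL fit.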

Compared with `COC(=O)NC(C(=O)O)c1ccc(F)c(-c2ccc(OC)c(C(=O)N[C@@H]3C4CCC(/C4=C/C(F)(F)F)[C@@H]3C(=O)Nc3ccc(F)c(C(F)(F)F)c3)c2)c1` (stereo partly drawn) [compound 186], `COc1ccc(-c2cc(C(NC(=O)Cc3ccccc3)C(=O)O)ccc2F)cc1C(=O)N[C@@H]1C2CCC(/C2=C/C(F)(F)F)[C@@H]1C(=O)Nc1ccc(F)c(C(F)(F)F)c1` (stereo partly drawn) [compound 240] is 25-fold lower in EC50: 25 nM for the first, 1 nM for the second.

First: O=C(NC1CCC1)O[C@@H](c1ccc(F)c(-c2ccc(OCCO)c(C(=O)N[C@@H]3C4CCC(/C4=C/C(F)(F)F)[C@@H]3C(=O)Nc3ccc(F)c(C(F)(F)F)c3)c2)c1)C(F)(F)F (stereo partly drawn) [compound 319]
Second: COc1ccc(-c2cc([C@H](OC(=O)NC3CC3)C(F)(F)F)ccc2F)cc1C(=O)N[C@H]1[C@@H](C(=O)Nc2ccc(F)c(C(F)(F)F)c2)[C@H]2CC[C@@H]1/C2=C\C1CC(F)(F)C1 [compound 931]
The EC50 of the first is 5.2-fold higher: 13 nM for the first, 2.5 nM for the second. The second is the more potent here.

Going from `COc1ccc(C2=NOC3CN(C(=O)OC(C)(C)C)CC23)cc1C(=O)N[C@@H]1C2CCC(/C2=C/C2CC2)[C@@H]1C(=O)Nc1ccc(F)c(C(F)(F)F)c1` (stereo partly drawn) [compound 436] to `COc1ccc(C2=NOC3CCCC23)cc1C(=O)N[C@H]1[C@@H](C(=O)Nc2ccc(F)c(C(F)(F)F)c2)[C@H]2CC[C@@H]1/C2=C\C1CC1` (single isomer, unassigned) [Example 441], the EC50 rises from 4 nM to 360 nM (90-fold).

First: COc1ccc(C2CCCN2CC(C)(C)O)cc1C(=O)N[C@@H]1C2CCC(C2=CC2CC2)[C@@H]1C(=O)Nc1ccc(F)c(C(F)(F)F)c1 (stereo partly drawn) [compound 607]
Second: COc1ccc(C2=NOC(CO)C2)cc1C(=O)N[C@@H]1C2CCC(/C2=C/C2CCC2)[C@@H]1C(=O)Nc1ccc(F)c(C(F)(F)F)c1 (single isomer, unassigned) [Example 379]
The EC50 of the first is 4.9-fold higher: 128 nM for the first, 26 nM for the second. The second is the more potent here.

`COc1ccc(C2=NOC3COCC23)cc1C(=O)N[C@H]1[C@@H](C(=O)NCCC(C)(C)C)[C@H]2CC[C@@H]1/C2=C\C1CC1` (stereo partly drawn) [compound 612] and `CCC(CC)NC(=O)[C@@H]1[C@H](NC(=O)c2cc(C3=NOC4COCC34)ccc2OC)[C@@H]2CC[C@H]1/C2=C/C1CC1` (stereo partly drawn) [compound 611] are within 1.5-fold of each other in EC50: 134 nM for the first, 133 nM for the second.

Going from `COc1ccc(C2=NOC3COCC23)cc1C(=O)N[C@H]1[C@@H](C(=O)NCc2ccccc2C2CC2)[C@H]2CC[C@@H]1/C2=C\C1CC1` (stereo partly drawn) [compound 606] to `COc1ccc(C2=NOC3COCC23)cc1C(=O)N[C@H]1[C@@H](C(=O)N[C@@H]2CCCc3ccccc32)[C@H]2CC[C@@H]1/C2=C\C1CC1` (stereo partly drawn) [compound 538], the EC50 falls from 121 nM to 26.3 nM (4.6-fold). The second is the more potent here.

Going from `COc1cc(F)c(F)cc1C(=O)N[C@@H]1C2CCC(/C2=C/c2cccc(-c3ccccc3)c2)[C@@H]1C(=O)Nc1ccc(F)c(C(F)(F)F)c1` (stereo partly drawn) [compound 15] to `COc1cc(F)c(F)cc1C(=O)N[C@@H]1C2CCC(/C2=C/c2cccc(C#N)c2)[C@@H]1C(=O)Nc1ccc(F)c(C(F)(F)F)c1` (stereo partly drawn) [compound 59], the EC50 rises from 110 nM to 890 nM (8.1-fold).

`COc1ccc(C2=NOC3CC(NC(=O)CO)CC23)cc1C(=O)N[C@@H]1C2CCC(/C2=C/C2CC2)[C@@H]1C(=O)Nc1ccc(F)c(C(F)(F)F)c1` (stereo partly drawn) [compound 743] and `COc1ccc(C2=NO[C@H]3CC(CO)C[C@@H]23)cc1C(=O)N[C@H]1[C@@H](C(=O)Nc2ccc(F)c(C(F)(F)F)c2)[C@H]2CC[C@@H]1/C2=C\CC1CCC1` (stereo partly drawn) [compound 837] are within 1.5-fold of each other in EC50: 5 nM for the first, 4.3 nM for the second.

`COc1cc(F)c(F)cc1C(=O)N[C@@H]1C2CCC(/C2=C\Br)[C@@H]1C(=O)Nc1ccc(F)c(C(F)(F)F)c1` (stereo partly drawn) [compound 10] and `COc1ccccc1/C=C1\C2CCC1[C@H](C(=O)Nc1ccc(F)c(C(F)(F)F)c1)[C@@H]2NC(=O)c1cc(F)c(F)cc1OC` (stereo partly drawn) [compound 23] are within 1.5-fold of each other in EC50: 1100 nM for the first, 1400 nM for the second.

Compared with `COc1ccc(-c2cc(C(=O)O)ccc2F)cc1C(=O)N[C@@H]1C2CCC(/C2=C/c2cncnc2)[C@@H]1C(=O)Nc1ccc(F)c(C(F)(F)F)c1` (stereo partly drawn) [compound 129], `CNC(=O)c1ccc(F)c(-c2ccc(OC)c(C(=O)N[C@@H]3C4CCC(/C4=C/C4CC4)[C@@H]3C(=O)Nc3ccc(F)c(C(F)(F)F)c3)c2)c1` (stereo partly drawn) [Example 166] is 5.5-fold lower in EC50: 60 nM for the first, 11 nM for the second.

Going from `COc1ccc(-c2cc(C(NC(=O)C3CCOCC3)C(=O)O)ccc2F)cc1C(=O)N[C@H]1[C@@H](C(=O)Nc2ccc(F)c(C(F)(F)F)c2)[C@H]2CC[C@@H]1/C2=C\CC(C)C` (stereo partly drawn) [compound 941] to `COc1ccc(-c2cc(C3=NOC(C(=O)O)C3)ccc2F)cc1C(=O)N[C@H]1[C@@H](C(=O)Nc2ccc(F)c(C(F)(F)F)c2)[C@H]2CC[C@@H]1/C2=C\C1CCCC1` (stereo partly drawn) [compound 913], the EC50 rises from 1.2 nM to 9 nM (7.5-fold). The first is the more potent here.

Going from `COc1ccc(C2=NO[C@H]3COC[C@@H]23)cc1C(=O)N[C@H]1[C@@H](C(=O)Nc2ccc(F)c(C(F)(F)F)c2)[C@H]2CC[C@@H]1/C2=C\C1CCCC1` [compound 819] to `O=C(N[C@H]1[C@@H](C(=O)Nc2ccc(F)c(C(F)(F)F)c2)[C@H]2CC[C@@H]1/C2=C\C1CC1)c1cc(C2=NOC3COCC23)ccc1F` (single isomer, unassigned) [compound 677], the EC50 rises from 2.3 nM to 501 nM (220-fold). The first is the more potent here.

`COc1ccc(C2=NOC3CC(C)(CO)CC23)cc1C(=O)N[C@H]1[C@@H](C(=O)N[C@H](C)C2(C)CC2)[C@H]2CC[C@@H]1/C2=C\c1csc(C(F)(F)F)n1` (stereo partly drawn) [compound 915] and `COc1ccc(C2=NO[C@H]3CC(CO)C[C@@H]23)cc1C(=O)N[C@H]1[C@@H](C(=O)Nc2ccc(F)c(C(F)(F)F)c2)[C@H]2CC[C@@H]1/C2=C\CCC(F)(F)F` (stereo partly drawn) [compound 825] are within 1.5-fold of each other in EC50: 4 nM for the first, 2.9 nM for the second.

Going from `COc1ccc(-c2ccc(C(=O)NCC(=O)O)cc2F)cc1C(=O)N[C@@H]1C2CCC(/C2=C/c2ccccc2)[C@@H]1C(=O)Nc1ccc(F)c(C(F)(F)F)c1` (stereo partly drawn) [compound 194] to `COc1ccc(-c2cccnc2F)cc1C(=O)N[C@H]1[C@@H](C(=O)Nc2ccc(F)c(C(F)(F)F)c2)[C@H]2CC[C@@H]1/C2=C\c1ccccc1` [compound 82], the EC50 rises from 5 nM to 41 nM (8.2-fold).

First: COc1ccc(-c2cc(C(=O)O)ccc2F)cc1C(=O)N[C@@H]1C2CCC(/C2=C/C2CC2)[C@@H]1C(=O)NC1CCCCC1 (stereo partly drawn) [compound 203]
Second: COc1ccc(C2=NO[C@@H]3C[C@@H](CO)CN23)cc1C(=O)N[C@H]1[C@@H](C(=O)Nc2ccc(F)c(C(F)(F)F)c2)[C@H]2CC[C@@H]1/C2=C\C1CC1 [compound 849]
The EC50 of the first is 120-fold higher: 322 nM for the first, 2.7 nM for the second.

Going from `COc1ccc(-c2cnc3c(cnn3CC(=O)O)c2)cc1C(=O)N[C@@H]1C2CCC(/C2=C/C(F)(F)F)[C@@H]1C(=O)Nc1ccc(F)c(C(F)(F)F)c1` (stereo partly drawn) [compound 317] to `COc1ccc(-c2cc(C(=O)OC(C)(C)C)ccc2F)cc1C(=O)N[C@@H]1C2CCC(/C2=C/C(F)(F)F)[C@@H]1C(=O)Nc1ccc(F)c(C(F)(F)F)c1` (stereo partly drawn) [compound 294], the EC50 rises from 31 nM to 47 nM (1.5-fold). The first is the more potent here.

Going from `COc1ccc(-c2cccc(C(F)(F)F)n2)cc1C(=O)N[C@@H]1C2CCC(/C2=C/C2CC2)[C@@H]1C(=O)Nc1ccc(F)c(C(F)(F)F)c1` (stereo partly drawn) [compound 283] to `COC(=O)c1cccc(-c2ccc(OC)c(C(=O)N[C@H]3[C@@H](C(=O)Nc4ccc(F)c(C(F)(F)F)c4)[C@H]4CC[C@@H]3C4=C(C)C)c2)c1` [compound 86], the EC50 rises from 69 nM to 150 nM (2.2-fold). The first is the more potent here.

For `COc1cc(C(=O)N[C@H]2[C@@H](C(=O)Nc3ccc(F)c(C(F)(F)F)c3)[C@H]3CC[C@@H]2/C3=C\C2CC2)cc(C2=NOC3COCC23)c1` (single isomer, unassigned) [compound 602], the EC50 was 110 nM.

same assay, conditions: cAMP hRXFP1 HEK293 Assay EC50, HEK293 cells stably expressing human RXFP1, 30 min at room temperature

With `COc1ccc(-c2cc(C(=O)O)ccc2F)cc1C(=O)N[C@H]1[C@@H](C(=O)Nc2ccc(F)c(C(F)(F)F)c2)[C@H]2CC[C@@H]1/C2=C/c1ccccc1` [compound 91] the EC50 was 360 nM.

Source: patent US20250221966A1, “RXFP1 AGONISTS” (BRISTOL-MYERS SQUIBB COMPANY, priority 2021, published 2025)
